Source: patent US12703836B2, “Mixture of compounds with high molecular weights, obtained from sugar cane wax (Saccharum officinarum L.)” (CENTRO NACIONAL DE INVESTIGACIONES CIENTÍFICAS, priority 2021, dated 2026)

Experiments:
[1] = tested on: Mongolian gerbils with global brain Ischemia/Reperfusion (I/R); assay: Clinical symptom (neurological function) score after global cerebral ischemia by bilateral carotid occlusion/reperfusion; assay type: in vivo; details: 4 hours after I/R
Source text: (§1) For the evaluation of the neuroprotective effect of the mixture of high molecular weight substances, the object of the present invention, an experimental model of global cerebral ischemia by occlusion and reperfusion of the carotid arteries was used. The composition of High Molecular Weight Substances (HMWS) obtained in example 1 was subjected to a preclinical test with animals, in which its pharmacological effect was compared with the effects of pure extracts of Fatty Acids in the form of Salts (AcGS), fatty alcohols (AlcG) and high molecular weight aldehydes (AldG), which were administered in the dose equivalent to the proportion in which each one is present in 200 mg/kg of the HMWS Active Ingredient. Furthermore, the effect of HMWS was compared with the effect of pure free fatty acid (AcGL) extract administered at equal doses. […] Once the quarantine was over, the gerbils were distributed into 8 groups: a negative control that only received vehicle and cerebral ischemia (CI) was not induced and 7 groups with induced CI. […] All treatments were administered orally through intragastric intubation (0.5 mL/70 g body weight) 1 hour prior to induction of ischemia. […] For 6 minutes, the number of times the gerbils crossed the different quadrants with their front legs and the number of times they stopped or leaned was quantified.

[2] = tested on: Mongolian gerbils with global brain Ischemia/Reperfusion (I/R); assay: Locomotor activity (open field) after global cerebral ischemia/reperfusion; assay type: in vivo; details: 24 hours post-ischemia, oral HMWS 200, AcGS 132, AlcG 40, AldG 28, AcGL 200, ASA 60 mg/kg
Source text: as §1

[3] = tested on: rabbits with spinal cord damage induced by Ischemia/Reperfusion (I/R); assay: Neurological deficit score in spinal cord ischemia/reperfusion (abdominal aorta occlusion); assay type: in vivo, New Zealand rabbits; details: lower = better
Protocol: The neuroprotective effect of the HMWS mixture, object of the present invention, was also investigated using an experimental model of induction of ischemia in the spinal cord. […] Furthermore, the effect of HMWS was compared with that of pure extract of free fatty acids (AcGL) administered at equal doses.
The substances HMWS, AcGS, AlcG, AldG, AcGL and aspirin were prepared as suspensions in an acacia/water vehicle (1%). Once the quarantine was completed, the rabbits were distributed into 8 groups: a negative control that only received vehicle and was not induced ischemia and 7 groups with spinal cord ischemia: a positive control treated only with the vehicle, and 6 groups were treated with HMWS (200 mg/kg), AcGS (132 mg/kg), AlcG (40 mg/kg), AldG (28 mg/kg), AcGL (200 mg/kg), and aspirin (2 mg/kg) as reference substance. […]

[4] = tested on: rabbits with spinal cord damage induced by Ischemia/Reperfusion (I/R); assay: Mortality in spinal cord ischemia/reperfusion; assay type: in vivo, New Zealand rabbits; details: oral for 10 days: HMWS 200, AcGS 132, AlcG 40, AldG 28, AcGL 200, ASA 2 mg/kg, positive control 80
Protocol: The neuroprotective effect of the HMWS mixture, object of the present invention, was also investigated using an experimental model of induction of ischemia in the spinal cord. The composition obtained in example 2 was subjected to a preclinical test in which its pharmacological effect was compared with the effects of pure extracts of Fatty Acids in the form of Salts (AcGS), fatty alcohols (AlcG) and high molecular weight aldehydes (AldG), which were administered at doses equivalent to that of those respective substances in 200 mg/kg of the HMWS Active Ingredient. Furthermore, the effect of HMWS was compared with that of pure extract of free fatty acids (AcGL) administered at equal doses.
Male New Zealand rabbits (1.8-2.2 kg) were used, which were adapted for 15 days to laboratory conditions (temperature of 20 to 25° C., relative humidity of 60±5%, light/dark cycles of 12 hours), with free access to water and food.
The substances HMWS, AcGS, AlcG, AldG, AcGL and aspirin were prepared as suspensions in an acacia/water vehicle (1%). […]
For the induction of ischemia in the spinal cord, the rabbits were anesthetized with thiopental (20 mg/kg i.v.). […] At 4 and 24 hours of reperfusion, the neurological deficit of the animals was blindly evaluated by 2 independent observers (according to Zivin et al., 1982). […]

## CC(=O)Oc1ccccc1C(=O)O [ASA, aspirin]
[1]; oral HMWS 200, AcGS 132, AlcG 40, AldG 28, AcGL 200, ASA 60 mg/kg, vs positive control
  Inhibition (%) of clinical symptom score: 86.6%
[1]; single oral dose 1 hour before ischemia: HMWS (example 1) 200, AcGS 132, AlcG 40, AldG 28, AcGL 200, ASA 60 mg/kg, mean ± SEM, positive control 3.00 ± 0.52
  SC score (clinical symptoms, McGraw scale 0-5): 0.40 ± 0.35
[2]; 6 minutes, mean ± SEM, positive control 355.5 ± 12.4, negative 250.8 ± 14.8
  Crosses (#), open field locomotor activity: 286.2 ± 15.2 #
[2]
  Inhibition (%) of hyperlocomotion (crosses): 66.2%
[3]; 4 h of reperfusion, oral for 10 days: HMWS (example 2) 200, AcGS 132, AlcG 40, AldG 28, AcGL 200, ASA 2 mg/kg, positive control 0.30 ± 0.17, negative 2 ± 0
  Score (neurological deficit) 4 h: 0.90 ± 0.25
[3]; 24 h of reperfusion, oral for 10 days: HMWS 200, AcGS 132, AlcG 40, AldG 28, AcGL 200, ASA 2 mg/kg, positive control 0.15 ± 0.1, negative 2 ± 0
  Score (neurological deficit) 24 h: 0.50 ± 0.24
[4]
  Mortality 24 h (%): 40+ %
